Laboratory results taken from patent publication US20090131370A1, “Novel Nucleoside Derivatives” (METABASIS THERAPEUTICS , INC., priority 2004, published 2009).

Conditions: male, Sprague-Dawley, rat, in vivo
Description: Analog and Its 2′,3′-Carbonate Prodrugs The liver selectivity of an antiviral nucleoside, 2′-B-C-methyladenosine, and its 2′,3′-carbonate prodrugs was evaluated in the rat by comparing liver nucleotide concentrations to levels of a major metabolite in the plasma or to concentrations of extrahepatic nucleotides. An elevated liver selectivity index is an indication of improved liver targeting of the antiviral agent and reduced exposure to other organs that may be potential targets of toxicity.
At pre-specified times of 20 min, 1, 3, 5, 8, 16, and 24 hrs post dose, liver, heart, and thigh muscle samples (˜1 g) were harvested by freeze-clamping and homogenized in 3 volumes of ice-cold acetonitrile. Following centrifugation to clarify the homogenate, aliquots of the tissue extracts were evaporated to dryness on a Savant Speed-Vac Plus (1 hr, room temperature). The resulting dried residue was reconstituted with 100 μL of mobile phase and then analyzed for nucleotides by an LC-MS/MS method as described in Example I. In addition to solid tissue, blood was collected in heparin tubes at the pre-specified times and centrifuged to obtain plasma. The plasma samples (100 μL) were extracted with 1.5 volumes of methanol and centrifuged for 20 min at top speed on a microfuge. Plasma concentrations of a major metabolite of 2′-B-C-methyladenosine, i.e., 2′-B-C-methylinosine, were determined by LC-UV as described in Example E.
The area under the curve (AUC) to the last measurable time point was calculated by trapezoidal summation of the liver, heart, and muscle concentration-time profile of total nucleotides and NTP and of the plasma concentration-time profile of the major metabolite 2′-B-C-methylinosine. The liver selectivity index was determined by two methods: (1) dividing liver NTP AUC by heart nucleotide AUC and (2) dividing liver NTP AUC by plasma 2′-3-C-methylinosine AUC.

C[C@@]12OC(=O)O[C@@H]1[C@@H](CO)O[C@H]2n1cnc2c(N)ncnc21 [Compound 31.5, 2′,3′-Carbonyl-2′-C-beta-methyl-adenosine]
Heart Nucleotides AUC: 23
Liver NTP AUC: 2522
Plasma 2′-β-C-Methylinosine AUC: 25
